Results reported in publication PMC12920295, “Novel radiohybrid PET-Tracers for SST2-targeted imaging of neuroendocrine tumors” (European Journal of Nuclear Medicine and Molecular Imaging, 2025).
Like-named read-outs stand apart in the source and are kept apart here.

Columns and labels:
[1] = Lipophilicity LogDpH=7.4, shake flask method; type: physicochemical; details: PBS (pH = 7.4)/n-octanol, mean of n = 8
Experimental: The LogDpH=7.4 was determined using a modified shake flask method as previously described.

[2] = biological target: T1, human serum albumin (HSA) (Homo sapiens, UniProt P02768); assay: HSA binding by high performance affinity chromatography (HPAC); type: in vitro ADME
T1 construct: purchased H13H-2433
T1 sequence (P02768 25-609): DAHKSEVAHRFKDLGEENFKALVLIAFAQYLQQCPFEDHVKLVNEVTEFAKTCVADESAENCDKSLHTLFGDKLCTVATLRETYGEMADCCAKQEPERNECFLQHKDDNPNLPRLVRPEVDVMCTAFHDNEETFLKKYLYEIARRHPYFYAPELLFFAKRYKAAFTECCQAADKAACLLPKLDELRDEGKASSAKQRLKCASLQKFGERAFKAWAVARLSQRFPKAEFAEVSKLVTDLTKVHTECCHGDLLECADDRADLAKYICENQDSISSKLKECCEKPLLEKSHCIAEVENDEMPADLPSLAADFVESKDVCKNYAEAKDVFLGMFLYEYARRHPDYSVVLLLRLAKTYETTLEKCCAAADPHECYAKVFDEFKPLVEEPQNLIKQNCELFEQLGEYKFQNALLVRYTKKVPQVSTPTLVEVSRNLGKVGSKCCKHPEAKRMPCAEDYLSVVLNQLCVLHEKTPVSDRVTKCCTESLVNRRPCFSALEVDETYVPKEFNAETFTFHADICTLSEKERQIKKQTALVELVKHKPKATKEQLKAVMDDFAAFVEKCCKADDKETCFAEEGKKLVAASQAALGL
Experimental: For the determination of binding to human serum albumin (HSA) using HPLC, a Chiralpak HSA column (50 × 3 mm, 5 μm, H13H-2433) was used at a constant flow rate of 0.5 ml/min. The mobile phase (A: NH4OAc, 50 mM in H2O, pH 6.9 and B: iPrOH) was freshly prepared for each day.

AR42J cells = assay: Internalization into AR42J cells relative to [125I]TOC; type: cell-based; details: percentage compared to internal reference [125I]TOC
Experimental: AR42J cells (European Collection of Cell Cultures, Salisbury, UK) were grown in RPMI 1640 medium (with 2 mM, L-Glu, 10% FCS; v/v, 37 °C, 5% CO2), harvested 24 ± 2 h and seeded in 24-well poly-L-lysine plates (2.0 × 10^5 cells/well in 1 ml culture medium). After removal of the medium, the cells were washed with assay medium (300 µl, RPMI 1640 with 2 mM L-Glu, 5% BSA; v/v) and incubated in assay medium (200 µl, 15 min, 37 °C, 5% CO2). 25 µl of the ^18F-labeled ligand (20 nM) and [^125I]TOC (1 nM) in assay medium were added followed by either 25 µl TOC in assay medium (100 µM, competition experiment) or 25 µl of assay medium (internalization experiment). Cells were incubated at 37 °C for 15, 30, and 60 min (n = 3 per compound and time point), respectively, and chilled on ice. The supernatant was collected, the well washed with ice-cold RPMI 1640 (300 µl), and the two fractions combined (unbound ligand). The cells were incubated with acid wash solution (300 µl, 0.9% NaCl, 50 mM NaOAc/AcOH buffer, pH = 4.6, 15 min, 4 °C) to remove receptor-bound radioligand. The supernatant was collected, and the cells washed with 300 µl ice-cold acid wash solution (combined fractions: acid releasable, receptor bound ligand). The cells were lysed with NaOH solution (300 µl, 1 M, 15 min, RT), washed with 300 µl of the same solution, the two fractions combined (internalized ligand), and all activities quantified using a γ-counter.

[3] = Biodistribution 1 h p.i. in AR42J xenograft bearing CD1 nu/nu mice; type: in vivo; details: female, mouse, intravenous, total radioactivity, average ± Stdev
Experimental: (§1) The 8-week-old female CD1 nu/nu mice were purchased from Charles River (Sulzfeld, Germany). Animal experiments were conducted according to general animal welfare regulations (German animal protection act, as amended on 18.05.2018, Art. 141 G v. 29.3.2017 I 626, approval no. 55.2-1.2-54–2532-71-13 by the General Administration of the Free State of Bavaria; Swiss animal welfare regulations: Animal Welfare Act SR 455, license: Canton de Vaud, 3781 d). To establish tumor xenografts, AR42J cells (5 × 10^6 cells in 100 µl serum-free culture medium) were inoculated subcutaneously onto the shoulder. Mice were used for experiments when tumors had grown to a diameter of 5–9 mm (7–15 days after inoculation).
Approximately 0.5–2.5 MBq (0.05–0.20 nmol) of the ^18F-labeled ligands were injected into the tail vein of AR42J xenograft-bearing mice under isoflurane anesthesia (1.5% alveolar concentration). The mice were sacrificed 1 h post injection (n = 3–5). Organs were removed, weighed, and the activity quantified (γ-counter).
An unpaired Welch’s t-test was applied using the GraphPad Prism software (version 10.1.2). Standard deviations for tumor-to-organ (T/O) ratios were calculated using the rules of error propagation. Thresholds for statistical significance are defined as: p > 0.05 (ns); p ≤ 0.05 (*); p ≤ 0.01 (**); p ≤ 0.001 (***); p ≤ 0.0001 (****).

SST2 (AR42J tumor) = biological target: T2, SST2 (AR42J tumor) (Rattus norvegicus, UniProt P30680); assay: µPET/CT imaging with and without octreotide blocking in AR42J tumor bearing mice; type: in vivo; details: 60 min p.i.
T2 construct: endogenous in cells; host or cells: AR42J xenograft in CD1 nu/nu mice
T2 sequence (P30680 whole entry): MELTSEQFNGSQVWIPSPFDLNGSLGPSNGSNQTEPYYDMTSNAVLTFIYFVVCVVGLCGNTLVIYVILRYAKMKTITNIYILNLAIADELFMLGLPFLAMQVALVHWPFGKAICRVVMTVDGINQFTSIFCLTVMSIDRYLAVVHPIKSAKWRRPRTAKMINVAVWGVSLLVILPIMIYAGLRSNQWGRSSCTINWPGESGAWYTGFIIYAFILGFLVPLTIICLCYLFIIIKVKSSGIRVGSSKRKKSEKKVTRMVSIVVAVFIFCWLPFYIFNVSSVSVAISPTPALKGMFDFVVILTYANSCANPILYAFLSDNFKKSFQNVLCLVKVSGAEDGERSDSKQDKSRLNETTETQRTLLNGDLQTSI
Experimental: as §1
4–5 MBq (0.3–0.5 nmol) of the ^68Ga-labeled SST2-ligand were injected into the tail vein of the xenograft-bearing mice. After 1 h, the mice were anesthetized (isoflurane: 1.5% alveolar concentration) and a PET image acquired (20 min, 32 × 32, 0.5 mm) using an Albira PET/SPECT/CT (Bruker Biospin Corporation, Woodbridge, CT, USA) followed by a CT scan (10 min). For blocking, 20 µg octreotide (0.8 mg/kg) were co-injected with the tracer. The images were reconstructed (Albira reconstructor, version NMI3.3) and analyzed (PMOD, V6.3.4, Bruker).

[4] = In-vitro stability in PBS, human serum and mouse liver extract; type: in vitro ADME; details: 1 h, 37 °C, radio RP-HPLC
Experimental: [^natF][^68Ga]rhTATE (ca. 5 MBq) was added to 500 µl samples of mouse liver extract, human serum, or PBS, respectively. The mixtures were incubated at 37 °C for 60 min. Workup of blood and liver extract samples was performed using cartridge purification (StrataX cartridge, 33 μm Polymeric Reversed Phase, 500 mg; preconditioning: 500 µl MeOH, 5 ml H2O; washing: 3 ml H2O; elution: ACN/H2O (0.1% TFA, 1:3, v/v, 300 µl). The resulting eluates were analyzed using radio RP-HPLC (Chromolith^R RP-18e; 100 × 4.6 mm; Merck KGaA; gradient of 10–90% ACN in H2O (0.1% TFA) within 8 min; flow rate: 1 ml/min). For cross-validation of HPLC results, radio RP-TLC was equally performed for all samples (1 M citric acid/NaOH, pH = 5.0; Rf: Product: 0.0–0.2.0.2; ^68Ga: 0.8–1.0.8.0).

[5] = design: method as in PMID 10774879; details: PBS (pH = 7.4)/n-octanol; cited from earlier work
[6] = co-injection of 20 µg octreotide (0.8 mg/kg)

In the case of `C[C@@H](O)[C@H](NC(=O)[C@@H]1CSSC[C@H](NC(=O)[C@@H](Cc2ccccc2)NC(=O)CN2CCN(CC(=O)O)CCN(CC(=O)NCCCC[C@@H](NC(=O)[C@@H](CNC(=O)C[N+](C)(C)Cc3ccc([Si](F)(C(C)(C)C)C(C)(C)C)cc3)NC(=O)[C@@H](CCC(=O)O)NC(=O)[C@@H](CCC(=O)O)NC(=O)[C@H](N)CCC(=O)O)C(=O)O)CCN(CC(=O)O)CC2)C(=O)N[C@@H](Cc2ccc(O)cc2)C(=O)N[C@H](Cc2c[nH]c3ccccc23)C(=O)N[C@@H](CCCCN)C(=O)N[C@@H]([C@@H](C)O)C(=O)N1)C(=O)O` [[^18/natF][^natGa]rhTATE2.5, metal not drawn], the “LogDpH=7.4” value [1] is reported as −2.30, the “HSA HPAC” value ([2]; affinity to HSA by affinity chromatography (Chiralpak HSA column)) is reported as 84.8% and the Internalization (AR42J cells) is reported as 357%. It also gave a tissue uptake at 1 h ([3]; adrenal glands, AR42J tumor-bearing CD1 nu/nu mice, read-out: Biodistribution Adrenal Glands) of 1.52 ± 0.21 %ID/g, a tissue uptake at 1 h ([3]; blood, AR42J tumor-bearing CD1 nu/nu mice, read-out: Biodistribution Blood) of 0.32 ± 0.11 %ID/g and a tissue uptake at 1 h ([3]; femur, AR42J tumor-bearing CD1 nu/nu mice, read-out: Biodistribution Femur) of 1.05 ± 0.3 %ID/g. For the same compound, the tissue uptake at 1 h ([3]; heart, AR42J tumor-bearing CD1 nu/nu mice, read-out: Biodistribution Heart) was 0.18 ± 0.05 %ID/g, the tissue uptake at 1 h ([3]; intestine, AR42J tumor-bearing CD1 nu/nu mice, read-out: Biodistribution Intestine) was 1.3 ± 0.25 %ID/g and the tissue uptake at 1 h ([3]; kidney, AR42J tumor-bearing CD1 nu/nu mice, read-out: Biodistribution Kidney) was 12.5 ± 3.5 %ID/g. It also gave a tissue uptake at 1 h ([3]; liver, AR42J tumor-bearing CD1 nu/nu mice, read-out: Biodistribution Liver) of 0.4 ± 0.12 %ID/g, a tissue uptake at 1 h ([3]; lung, AR42J tumor-bearing CD1 nu/nu mice, read-out: Biodistribution Lung) of 2.73 ± 0.46 %ID/g and a tissue uptake at 1 h ([3]; muscle, AR42J tumor-bearing CD1 nu/nu mice, read-out: Biodistribution Muscle) of 0.04 ± 0.02 %ID/g. It also gave a tissue uptake at 1 h ([3]; pancreas, AR42J tumor-bearing CD1 nu/nu mice, read-out: Biodistribution Pancreas) of 11.5 ± 2.32 %ID/g, a tissue uptake at 1 h ([3]; spleen, AR42J tumor-bearing CD1 nu/nu mice, read-out: Biodistribution Spleen) of 0.35 ± 0.07 %ID/g and a tissue uptake at 1 h ([3]; stomach, AR42J tumor-bearing CD1 nu/nu mice, read-out: Biodistribution Stomach) of 6.46 ± 1 %ID/g. For the same compound, the tissue uptake at 1 h ([3]; tumor (AR42J xenograft), AR42J xenograft, CD1 nu/nu mice, read-out: Biodistribution Tumor) was 18.6 ± 6.18 %ID/g, the “µPET kidney activity with SST2 blocking” value (SST2 (AR42J tumor); [6]) was “significantly reduced kidney activity” and the “µPET tumor signal with SST2 blocking” value (SST2 (AR42J tumor); [6]) was “no detectable tumor signal”. For the same compound, the “µPET uptake in the tumor and kidneys” value (SST2 (AR42J tumor); control mouse, 4 MBq, 0.5 nmol tracer/mouse) was “intense” and the in vitro stability [4] was “stable over 60 min”.
In the case of `C[C@@H](O)[C@H](NC(=O)[C@@H]1CSSC[C@H](NC(=O)[C@@H](Cc2ccccc2)NC(=O)CN2CCN(CC(=O)O)CCN(CC(=O)O)CCN(CC(=O)O)CC2)C(=O)N[C@@H](Cc2ccc(O)cc2)C(=O)N[C@H](Cc2c[nH]c3ccccc23)C(=O)N[C@@H](CCCCN)C(=O)N[C@@H]([C@@H](C)O)C(=O)N1)C(=O)O` [[^nat/68Ga]DOTA-TATE, metal not drawn, reference compound], the “HSA HPAC” value [2] is given as 88.9%, the Internalization (AR42J cells) is given as 570% and the “LogDpH=7.4” value [5] is given as −3.69 [24].
